Experimental findings from US20200397795A1, “PROPHYLACTIC TREATMENT OF VENOUS THROMBOEMBOLISM” (JANSSEN PHARMACEUTICALS, INC., priority 2019, published 2020) are described below.

The subject of data set [1] is events prevented vs bleeding events caused. The data set is classed as in vivo, human. From the text: The same time period was utilized, preventing double counting for fatal bleeds, with all bleeds through Day 35 included (even if off treatment), and bleeding deaths were not counted as CV deaths. Using the primary endpoint, there would be 131 fewer events in the rivaroxaban group with a number-to-treat to benefit (NNT) of 77 to prevent one event, but this was counterbalanced by causing 51 more major bleeds. The benefit risk profile was improved in the subpopulation, with 182 events prevented and only 18 major bleeds caused, with NNT and number-to-treat to harm (NNH) of 55 and 560, respectively. […] More ischemic events were prevented than hemorrhagic events caused in the subpopulation in all five pairs of clinically meaningful endpoints which included asymptomatic and symptomatic VTE and VTE-related death, major bleeding, and fatal and irreversible thrombotic and bleed events. For 35 days of treatment, the number need to treat to prevent 1 event ranged from 55 to 481 for the 5 pairs, while the number needed to harm ranged from 455-1,067.

The subject of data set [2] is bleeding events in high-risk, medically ill subjects. As to the kind of experiment: MARINER (Study 2): safety, ISTH bleeding and adverse events.
From the text: The safety objectives were to compare rivaroxaban with placebo in the following bleeding outcomes in high-risk, medically ill subjects: • Major bleeding using validated International Society on Thrombosis and Haemostasis (ISTH) bleeding criteria. • Non-major clinically relevant (NMCR) bleeding. • Other bleeding.
Safety assessment was based on bleeding events classified by validated ISTH criteria as major bleeding (principal safety outcome), NMCR bleeding, or Other bleeding. […] The safety outcome of NMCR bleeding was defined as overt bleeding not meeting ISTH criteria for major bleeding, but associated with medical intervention, unscheduled contact (visit or telephone call) with a physician, (temporary) cessation of study treatment, or associated with discomfort for the subject such as pain or impairment of activities of daily life. […] Overall safety was also assessed.
The principal safety outcome was major bleeding based on validated ISTH criteria. Treatments were compared using the same statistical model (i.e., Cox proportional hazards model) as that for the primary efficacy outcome. The same analyses were used for NMCR bleeding. Safety analyses were based on the safety analysis set and on-treatment analysis phase. Bleeding events were analyzed based on time from randomization to the first occurrence.
[3] abbreviates: subpopulation, primary endpoint.

As for `O=C(NC[C@H]1CN(c2ccc(N3CCOCC3=O)cc2)C(=O)O1)c1ccc(Cl)s1` [Rivaroxaban, 5-chloro-N-({(5S)-2-oxo-3-[4-(3-oxo-4-morpholinyl)phenyl]-1,3,oxazolidin-5-yl}methyl)-2-thiophenecarboxamide], in data set [1] (entire MAGELLAN population, primary endpoint), the “Number-to-treat to benefit (NNT) to prevent one event” value came to 77. Also, the “Fewer primary endpoint events in the rivaroxaban group” value in data set [1] (entire MAGELLAN population, through Day 35) stood at 131 events. Also, in data set [1] (human, in vivo, 35 day), the Major bleeds caused was found to be 18; the “More major bleeds caused” value came out at 51; the “Number needed to harm, range over 5 benefit-risk pairs” value is reported as 455-1,067; the “Number-to-treat to harm (NNH)” value came out at 560. In data set [1] (setting [3]), this compound came in with an Events prevented of 182 events and an NNT of 55. Moreover, in data set [2] (10 mg dose stratum), the “Fatal bleeding, incidence” value turned out to be 0.04%. The “Fatal bleeding, incidence” value in data set [2] (on-treatment, safety analysis set) was determined as 0.03%. For the same compound, the “AEs with outcome of death, n (%)” value in data set [2] (safety analysis set) is listed as 95 (1.6) %.
